Experiments:
Assay type in all cases: biochemical
BChE (Equine) = target: T1, BChE (Equine) (Equus caballus, UniProt P81908); assay: biochemical
T1 construct: purchased Sigma-Aldrich (Steinheim, Germany)
Method: (§1) The assay was performed in two steps.
(§2) All enzymes were obtained from Sigma-Aldrich (Steinheim, Germany). Ellman’s reagent and the substrates were obtained from Fluka (Buchs, Switzerland). The chemicals used to prepare the buffer solution were purchased from Merck (Darmstadt, Germany).
(§3) The enzyme inhibitory activities of the synthesized compounds were investigated by applying Ellman’s method. Enzyme solutions were dissolved in gelatin solution (1%; 2.5 units/mL). […] Then, the reaction was initiated by the addition of Ellman’s reagent 5,5′-Dithiobis(2-nitrobenzoic acid) (DTNB; 20 µL/well, 10 mM) and the substrate (10 µL/well, 75 mM). […] The enzyme solution was processed as a control. All readings were adjusted with blank-reading. All assays were performed in four independent wells. […] Absorbance differences between the two readings were taken, and percentage inhibition rates were calculated according to the following formula: % Inhibition=[(A(C)−A(B))−(A(I)−A(B))]/(A(C)−A(B))×100.
(§4) • Blank (B): the well in which the inhibitor compound and substrate were not added; • Control (C): the well where the inhibitor compound was not added; • A(B): the difference in absorbance reading for the blank; • A(C): the difference in absorbance reading for the control; • A(I): the difference in absorbance reading for the inhibitor compounds.

AChE (Human) = target: T2, AChE (Human) (Homo sapiens, UniProt P22303); assay: AChE inhibition, Ellman's method
T2 construct: purchased Sigma-Aldrich (Steinheim, Germany)
Method: as §1, §2, §3, §4

[1] = target: T3, AChE (Electrophorus electricus) (Electrophorus electricus, UniProt O42275); assay: AChE inhibition, Ellman's method
T3 construct: purchased Sigma-Aldrich (Steinheim, Germany)
Method: as §1, §2, §3, §4

BChE (Human) = target: T4, BChE (Human) (Homo sapiens, UniProt P06276); assay: BChE inhibition, Ellman's method
T4 construct: purchased Sigma-Aldrich (Steinheim, Germany)
Method: as §1, §2, §3, §4

[2] = read-out: BChE (Equine) inhibitory activity (%) ± SD

T4 sequence (P06276 29-602): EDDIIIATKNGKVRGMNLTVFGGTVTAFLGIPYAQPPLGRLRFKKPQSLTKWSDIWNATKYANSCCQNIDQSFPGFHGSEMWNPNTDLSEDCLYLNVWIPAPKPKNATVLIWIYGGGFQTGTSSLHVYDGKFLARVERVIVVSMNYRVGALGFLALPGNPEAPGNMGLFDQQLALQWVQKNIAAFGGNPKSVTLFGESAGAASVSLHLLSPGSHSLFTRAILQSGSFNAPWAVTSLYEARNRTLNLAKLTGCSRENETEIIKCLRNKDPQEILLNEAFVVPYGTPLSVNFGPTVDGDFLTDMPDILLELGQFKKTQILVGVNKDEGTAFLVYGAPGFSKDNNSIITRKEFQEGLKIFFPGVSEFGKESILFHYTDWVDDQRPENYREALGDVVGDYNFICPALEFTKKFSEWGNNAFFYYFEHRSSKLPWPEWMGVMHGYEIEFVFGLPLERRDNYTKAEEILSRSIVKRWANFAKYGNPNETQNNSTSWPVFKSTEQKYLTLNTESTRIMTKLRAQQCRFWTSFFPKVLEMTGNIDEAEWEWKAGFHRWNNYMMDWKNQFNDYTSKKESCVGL
T3 sequence (O42275 24-633): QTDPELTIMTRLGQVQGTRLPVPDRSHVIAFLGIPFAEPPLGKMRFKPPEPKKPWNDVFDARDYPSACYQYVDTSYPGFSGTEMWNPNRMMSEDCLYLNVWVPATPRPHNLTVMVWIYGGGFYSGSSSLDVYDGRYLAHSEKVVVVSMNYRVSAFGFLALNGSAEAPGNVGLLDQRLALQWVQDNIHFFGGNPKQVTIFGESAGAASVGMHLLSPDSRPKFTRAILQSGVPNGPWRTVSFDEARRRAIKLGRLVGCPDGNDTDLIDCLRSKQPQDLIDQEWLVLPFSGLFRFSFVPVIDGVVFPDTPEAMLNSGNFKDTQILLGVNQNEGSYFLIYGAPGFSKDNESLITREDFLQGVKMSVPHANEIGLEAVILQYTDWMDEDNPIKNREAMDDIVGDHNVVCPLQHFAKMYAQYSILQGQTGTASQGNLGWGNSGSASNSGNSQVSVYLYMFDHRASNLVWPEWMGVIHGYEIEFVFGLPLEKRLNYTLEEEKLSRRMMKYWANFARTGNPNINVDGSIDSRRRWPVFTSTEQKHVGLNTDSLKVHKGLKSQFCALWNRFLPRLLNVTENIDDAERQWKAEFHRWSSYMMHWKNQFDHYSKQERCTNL
T1 sequence (P81908 whole entry): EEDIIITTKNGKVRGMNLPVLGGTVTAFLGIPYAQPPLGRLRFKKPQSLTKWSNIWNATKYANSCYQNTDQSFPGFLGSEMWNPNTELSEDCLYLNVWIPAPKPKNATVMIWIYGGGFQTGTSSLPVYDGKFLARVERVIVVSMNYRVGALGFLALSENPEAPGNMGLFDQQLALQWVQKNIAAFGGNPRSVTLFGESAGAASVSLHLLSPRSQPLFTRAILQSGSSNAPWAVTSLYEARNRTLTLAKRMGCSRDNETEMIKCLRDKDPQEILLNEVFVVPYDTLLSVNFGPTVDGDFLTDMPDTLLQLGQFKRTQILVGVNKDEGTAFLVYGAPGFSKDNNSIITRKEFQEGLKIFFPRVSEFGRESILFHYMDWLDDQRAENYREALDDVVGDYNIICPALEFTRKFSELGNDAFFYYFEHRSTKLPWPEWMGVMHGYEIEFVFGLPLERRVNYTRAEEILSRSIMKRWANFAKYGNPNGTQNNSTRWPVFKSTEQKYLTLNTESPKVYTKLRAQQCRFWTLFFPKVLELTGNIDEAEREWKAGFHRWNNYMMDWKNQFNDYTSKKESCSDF
T2 sequence (P22303 32-614): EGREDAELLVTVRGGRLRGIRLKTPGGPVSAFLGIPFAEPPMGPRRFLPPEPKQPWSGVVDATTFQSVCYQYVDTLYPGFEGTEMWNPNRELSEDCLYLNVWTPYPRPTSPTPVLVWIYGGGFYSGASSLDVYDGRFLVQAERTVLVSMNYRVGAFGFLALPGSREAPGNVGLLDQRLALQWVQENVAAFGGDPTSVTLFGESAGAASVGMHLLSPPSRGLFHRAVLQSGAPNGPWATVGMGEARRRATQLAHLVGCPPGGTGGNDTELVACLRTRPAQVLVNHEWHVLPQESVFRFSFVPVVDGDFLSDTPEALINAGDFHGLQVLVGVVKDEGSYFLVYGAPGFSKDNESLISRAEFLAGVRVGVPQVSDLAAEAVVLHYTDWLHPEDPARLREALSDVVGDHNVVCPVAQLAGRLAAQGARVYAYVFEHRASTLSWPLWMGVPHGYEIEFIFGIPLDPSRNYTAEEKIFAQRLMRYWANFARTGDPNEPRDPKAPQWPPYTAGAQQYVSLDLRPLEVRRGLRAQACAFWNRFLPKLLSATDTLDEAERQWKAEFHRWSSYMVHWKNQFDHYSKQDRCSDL

SMILES	BChE (Equine) inhibitory activity (%) ± SD (BChE (Equine); 10^-3 M)	BChE (Equine) inhibitory activity (%) ± SD (BChE (Equine); 10^-4 M)	AChE (Human) inhibitory activity (%) ± SD (AChE (Human); 10^-3 M)	AChE (Human) inhibitory activity (%) ± SD (AChE (Human); 10^-4 M)	AChE (Electrophorus electricus) inhibitory activity (%) ± SD ([1]; 10^-3 M)	AChE (Electrophorus electricus) inhibitory activity (%) ± SD ([1]; 10^-4 M)	BChE (Human) inhibitory activity (%) ± SD (BChE (Human); 10^-3 M)	BChE (Human) inhibitory activity (%) ± SD (BChE (Human); 10^-4 M)	inhibition at 0.001 µM (BChE (Equine); [2])	inhibition at 0.01 µM (BChE (Equine); [2])	inhibition at 0.1 µM (BChE (Equine); [2])	inhibition at 1 µM (BChE (Equine); [2])	inhibition at 10 µM (BChE (Equine); [2])	inhibition at 100 µM (BChE (Equine); [2])	inhibition at 1000 µM (BChE (Equine); [2])	inhibition at 1000 µM (BChE (Human); 10^-3 M, read-out: BChE (Human) inhibitory activity (%) ± SD)	inhibition at 100 µM (BChE (Human); 10^-4 M, read-out: BChE (Human) inhibitory activity (%) ± SD)	inhibition at 10 µM (BChE (Human); 10^-5 M, read-out: BChE (Human) inhibitory activity (%) ± SD)	inhibition at 1 µM (BChE (Human); 10^-6 M, read-out: BChE (Human) inhibitory activity (%) ± SD)	inhibition at 0.1 µM (BChE (Human); 10^-7 M, read-out: BChE (Human) inhibitory activity (%) ± SD)
COc1ccc(N2CCN(C(=S)SCC(=O)Nc3c4ccccc4nc4ccccc34)CC2)cc1 [Compound 4h, 2-(9-Acridinylamino)-2-oxoethyl 4-(4-methoxyphenyl)piperazine-1-carbodithioate]	84.02±2.35%	12.64 ± 0.46%	35.77±1.62%	18.39 ± 0.57%	30.87±1.01%	15.23 ± 0.69%	80.88±2.05%	15.58 ± 0.67%												
O=C(CSC(=S)N1CCN(c2ncccn2)CC1)Nc1c2ccccc2nc2ccccc12 [Compound 4j, 2-(9-Acridinylamino)-2-oxoethyl 4-(pyrimidin-2-yl)piperazine-1-carbodithioate]	92.87±2.84%	27.86 ± 1.07%	66.71±1.06%	5.97 ± 0.22%	69.08±1.67%	2.88 ± 0.18%	90.51±2.18%	30.77 ± 1.20%												
O=C(CSC(=S)N1CCN(Cc2ccccc2)CC1)Nc1c2ccccc2nc2ccccc12 [Compound 4k, 2-(9-Acridinylamino)-2-oxoethyl 4-benzylpiperazine-1-carbodithioate]	74.62±2.75%	25.14 ± 1.42%	59.17±1.11%	7.21 ± 0.18%	58.74±1.69%	8.62 ± 0.22%	70.98±2.39%	20.65 ± 1.20%												
O=C(CSC(=S)N1CCN(C2CCCCC2)CC1)Nc1c2ccccc2nc2ccccc12 [Compound 4l, 2-(9-Acridin-ylamino)-2-oxoethyl 4-cyclohexylpiperazine-1-carbodithioate]	84.88±3.34%	45.88 ± 1.62%	58.33±1.39%	7.29 ± 0.18%	56.11±2.46%	3.90 ± 0.09%	85.71±2.40%	42.60 ± 1.53%												
COc1cc2c(cc1OC)C(=O)C(CC1CCN(Cc3ccccc3)CC1)C2 (centres unmarked) [Donepezil, reference compound]									9.23 ± 0.08%	15.3 ± 0.61%	38.1 ± 0.89%	54.3 ± 1.16%	59.2 ± 1.54%	71.7 ± 2.16%	82.2 ± 2.91%	85.2 ± 2.01%	76.5 ± 2.08%	60.2 ± 1.37%	52.5 ± 1.05%	32.7 ± 0.95%
